In test [1] the target is Kelch-like ECH-associated protein 1 (Homo sapiens, UniProt Q14145). In words: Binding affinity to Keap1 (unknown origin).
Test [2] addresses T1, Nuclear factor erythroid 2-related factor 2 (Homo sapiens) (UniProt Q16236).
T1 sequence (whole entry): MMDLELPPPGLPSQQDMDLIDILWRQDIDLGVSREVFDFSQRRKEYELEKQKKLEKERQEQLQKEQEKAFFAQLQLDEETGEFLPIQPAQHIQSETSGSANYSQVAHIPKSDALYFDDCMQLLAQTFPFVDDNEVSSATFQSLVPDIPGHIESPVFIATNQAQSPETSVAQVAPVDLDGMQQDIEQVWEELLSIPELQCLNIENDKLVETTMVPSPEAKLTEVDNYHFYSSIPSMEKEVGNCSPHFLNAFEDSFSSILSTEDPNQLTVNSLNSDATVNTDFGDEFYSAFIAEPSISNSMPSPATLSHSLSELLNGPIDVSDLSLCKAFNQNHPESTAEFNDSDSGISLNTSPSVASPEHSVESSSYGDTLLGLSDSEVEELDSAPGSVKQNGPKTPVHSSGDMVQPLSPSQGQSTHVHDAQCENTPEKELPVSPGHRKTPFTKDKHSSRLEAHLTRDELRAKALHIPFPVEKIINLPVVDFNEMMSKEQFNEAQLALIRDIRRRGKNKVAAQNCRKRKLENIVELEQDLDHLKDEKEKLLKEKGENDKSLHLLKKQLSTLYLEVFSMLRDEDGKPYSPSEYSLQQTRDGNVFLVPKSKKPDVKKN
Description: Activation of Nrf2 in human SK-N-SH cells expressing Nqo1 ARE-Luc reporter plasmid at 10 uM after 18 hrs by luciferase reporter gene assay. Type of test: cell-based.

The target of test [3] is T1, Nuclear factor erythroid 2-related factor 2 (Homo sapiens). In words: Activation of Nrf2 (unknown origin) assessed as induction of ARE at 60 uM.
Test [4] can be described thus: Neuroprotection activity in human MC65 cells. The class given is functional, cell-based.

This note sets out measurements from ChEMBL document CHEMBL4402544, “Reasonably activating Nrf2: A long-term, effective and controllable strategy for neurodegenerative diseases” (Eur J Med Chem, 2020).

pEC50, pIC50: −log10 of the molar value. Where a SMILES comes first, the peptide text is derived from it. [ ]: non-standard residue; d: D form. ξ: configuration not given here. ξCha = NC(CC1CCCCC1)C(=O)O; ξThz = O=C(O)C1CSCN1

Sequence of Kelch-like ECH-associated protein 1 (Q14145 whole entry): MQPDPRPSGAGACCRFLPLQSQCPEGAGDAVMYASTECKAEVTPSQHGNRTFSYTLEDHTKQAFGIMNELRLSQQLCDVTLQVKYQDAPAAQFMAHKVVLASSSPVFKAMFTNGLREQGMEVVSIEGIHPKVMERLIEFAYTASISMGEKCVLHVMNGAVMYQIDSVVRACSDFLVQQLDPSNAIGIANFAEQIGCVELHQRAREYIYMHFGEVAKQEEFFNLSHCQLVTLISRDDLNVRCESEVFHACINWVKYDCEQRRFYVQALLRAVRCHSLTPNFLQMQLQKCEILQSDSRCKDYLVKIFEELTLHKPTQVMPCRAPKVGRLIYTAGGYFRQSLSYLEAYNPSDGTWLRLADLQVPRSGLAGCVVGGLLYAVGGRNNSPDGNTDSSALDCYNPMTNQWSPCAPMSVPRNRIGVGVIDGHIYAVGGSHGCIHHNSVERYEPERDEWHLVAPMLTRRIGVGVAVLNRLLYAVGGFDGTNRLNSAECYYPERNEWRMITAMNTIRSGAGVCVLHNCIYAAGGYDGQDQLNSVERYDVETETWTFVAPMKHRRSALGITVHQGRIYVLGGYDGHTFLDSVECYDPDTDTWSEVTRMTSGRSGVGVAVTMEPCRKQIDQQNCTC

`C[C@@H](O)[C@H](NC(=O)[C@H](CCC(=O)O)NC(=O)C1CSCN1C(=O)[C@@H](N)CC(=O)O)C(=O)NCC(=O)N[C@@H](CCC(=O)O)C(=O)NC(CC1CCCCC1)C(=O)O` (some centres undefined) (H-D[ξThz]ETGE[ξCha]-OH) gave a negative-log IC50 (pIC50) in test [1] of 7.51.

In the case of `C[C@@H]1C(NC(=O)c2ccccc2O)=CC(=O)[C@@H]2O[C@H]12`, the fold change (FC) in test [2] is more than 4.

Take `C/C=C/C(=O)Oc1ccc2[nH]cc(CCNC(C)=O)c2c1`: the fold change (FC) in test [3] stood at 30.7.

With `COc1ccc2[nH]cc(CCNC(=O)CC(=O)CCc3ccc(O)cc3)c2c1`, the pEC50 in test [4] is 7.56.
